Entries after “also recorded” stand apart in the source; their conditions may differ.
Tests used:
[1] = Water Vapour Sorption isotherm (DVS), hygroscopicity acc. to Ph. Eur.; type: physicochemical; conditions: for Hygroscopicity classification acc. to Ph. Eur. criteria (section 5.11.): based on water uptake difference 40-80% rh; for Water uptake level (Water Vapour Sorption): isotherm 25° C.
Experimental: As used herein, unless stated otherwise, Water Vapour Sorption isotherm measurements are carried out on a DVS-1 or a DVS-Intrinsic system from SMS.

[2] = Miniaturized non-sink dissolution in FaSSIF pH 6.5; type: physicochemical; conditions: for Dissolution levels in FaSSIF pH 6.5: 37° C.; for Dissolution level in FaSSIF: FaSSIF pH 6.5, 37° C.
Experimental: Approx. 10-20 mg of solid sample were weighed into glass vials. 7 ml of respective FaSSIF (pH 6.5) medium (prewarmed to 37° C.) were added and the suspension was shaken at 450 rpm at 37° C. After 5 min, 15 min, 60 min, and 120 min, 1 ml suspension was withdrawn and filtered through a 0.2 µm syringe filter. Clear filtrate was analysed by HPLC after suitable dilution to measure the amount of API dissolved. To get non-sink conditions 1 ml pre warmed FaSSiF solution was added after sample was withdrawn.
The clear solution was collected in HPLC vials, the filtrate further diluted if necessary and finally HPLC analysis was carried out.
HPLC method for ph-dependent solubility & miniaturised non-sink dissolution: • Column: Chromolith RP-18e 100 - 3 mm • Solvent A: water/formic acid (999:1; v/v) • Solvent B: acetonitrile/formic acid (999:1; v/v) • Injection volume: 5 µL • Column temperature: 37° C. • Wavelength detector: 218 nm

[3] = relative humidity range 40-80% rh

Compound | Hygroscopicity classification acc. to Ph. Eur. criteria (section 5.11.) [1] | Water uptake level (Water Vapour Sorption) [1, 3] | Dissolution level in FaSSIF ([2]; after 15 min) | Dissolution level in FaSSIF ([2]; after 60 min) | Dissolution level in FaSSIF ([2]; after 120 min) | Tendency to undergo hydrate formation upon exposure to elevated RH levels ([1]; up to 90% RH) | also measured
COc1ccc2nc3cc(Cl)ccc3c(Nc3cc(CN4CCCC4)c(O)c(CN4CCCC4)c3)c2n1 [Form I, 4-[(7-chloro-2-methoxybenzo[b][1,5]naphthyridin-10-yl)amino]-2,6-bis(pyrrolidin-1-ylmethyl)phenol] | hygroscopic | 2.4 wt% | approx. 0.56 mg/mL | approx. 0.55 mg/mL | approx. 0.54 mg/mL | – | Dissolution levels in FaSSIF pH 6.5 ([2]; 5 min, listed as Tosylate salt Form I): 547.9 µg/mL; Dissolution levels in FaSSIF pH 6.5 ([2]; 15 min, listed as Tosylate salt Form I): 557.9 µg/mL; Dissolution levels in FaSSIF pH 6.5 ([2]; 60 min, listed as Tosylate salt Form I): 552.8 µg/mL; Dissolution levels in FaSSIF pH 6.5 ([2]; 120 min, listed as Tosylate salt Form I): 537.7 µg/mL
COc1ccc2nc3cc(Cl)ccc3c(Nc3cc(CN4CCCC4)c(O)c(CN4CCCC4)c3)c2n1 [Form V, 4-[(7-chloro-2-methoxybenzo[b][1,5]naphthyridin-10-yl)amino]-2,6-bis(pyrrolidin-1-ylmethyl)phenol] | slightly hygroscopic; also recorded: non-hygroscopic | 0.6 wt% | approx. 0.17 mg/mL | approx. 0.56 mg/mL | approx. 0.82 mg/mL | no tendency to undergo hydrate formation | Dissolution levels in FaSSIF pH 6.5 ([2]; 5 min, listed as Napsylate salt Form V): 95.2 µg/mL; Dissolution levels in FaSSIF pH 6.5 ([2]; 15 min, listed as Napsylate salt Form V): 171.1 µg/mL; Dissolution levels in FaSSIF pH 6.5 ([2]; 60 min, listed as Napsylate salt Form V): 564.1 µg/mL; Dissolution levels in FaSSIF pH 6.5 ([2]; 120 min, listed as Napsylate salt Form V): 817.6 µg/mL
COc1ccc2nc3cc(Cl)ccc3c(Nc3cc(CN4CCCC4)c(O)c(CN4CCCC4)c3)c2n1 [Form VII, 4-[(7-chloro-2-methoxybenzo[b][1,5]naphthyridin-10-yl)amino]-2,6-bis(pyrrolidin-1-ylmethyl)phenol] | non-hygroscopic; also recorded: slightly hygroscopic | < 0.1 wt% | – | – | – | – | Tendency to undergo hydrate formation upon exposure to elevated RH levels ([1]; up to 98% RH): no tendency to undergo hydrate formation
COc1ccc2nc3cc(Cl)ccc3c(Nc3cc(CN4CCCC4)c(O)c(CN4CCCC4)c3)c2n1 [Form II, 4-[(7-chloro-2-methoxybenzo[b][1,5]naphthyridin-10-yl)amino]-2,6-bis(pyrrolidin-1-ylmethyl)phenol] | slightly hygroscopic | – | approx. 0.45 mg/mL | approx. 0.44 mg/mL | approx. 0.44 mg/mL | – | Water uptake level (Water Vapour Sorption) ([1]; relative humidity range 40-90% rh): 1.4 wt%; Dissolution levels in FaSSIF pH 6.5 ([2]; 5 min, listed as Besylate salt Form II): 432.8 µg/mL; Dissolution levels in FaSSIF pH 6.5 ([2]; 15 min, listed as Besylate salt Form II): 447.0 µg/mL; Dissolution levels in FaSSIF pH 6.5 ([2]; 60 min, listed as Besylate salt Form II): 440.1 µg/mL; Dissolution levels in FaSSIF pH 6.5 ([2]; 120 min, listed as Besylate salt Form II): 444.5 µg/mL
COc1ccc2nc3cc(Cl)ccc3c(Nc3cc(CN4CCCC4)c(O)c(CN4CCCC4)c3)c2n1 [Form IV, 4-[(7-chloro-2-methoxybenzo[b][1,5]naphthyridin-10-yl)amino]-2,6-bis(pyrrolidin-1-ylmethyl)phenol] | slightly hygroscopic | 0.6 wt% | approx. 0.17 mg/mL | approx. 0.56 mg/mL | approx. 0.82 mg/mL | no tendency to undergo hydrate formation | Dissolution levels in FaSSIF pH 6.5 ([2]; 5 min, listed as Napsylate salt Form IV): 116.6 µg/mL; Dissolution levels in FaSSIF pH 6.5 ([2]; 15 min, listed as Napsylate salt Form IV): 209.0 µg/mL; Dissolution levels in FaSSIF pH 6.5 ([2]; 60 min, listed as Napsylate salt Form IV): 488.8 µg/mL; Dissolution levels in FaSSIF pH 6.5 ([2]; 120 min, listed as Napsylate salt Form IV): 630.0 µg/mL
COc1ccc2nc3cc(Cl)ccc3c(Nc3cc(CN4CCCC4)c(O)c(CN4CCCC4)c3)c2n1 [Form III, 4-[(7-chloro-2-methoxybenzo[b][1,5]naphthyridin-10-yl)amino]-2,6-bis(pyrrolidin-1-ylmethyl)phenol] | slightly hygroscopic | 1.5 wt% | approx. 0.46 mg/mL | approx. 0.48 mg/mL | approx. 0.47 mg/mL | no tendency to undergo hydrate formation | Dissolution levels in FaSSIF pH 6.5 ([2]; 5 min, listed as Edisylate salt Form III): 406.7 µg/mL; Dissolution levels in FaSSIF pH 6.5 ([2]; 15 min, listed as Edisylate salt Form III): 462.7 µg/mL; Dissolution levels in FaSSIF pH 6.5 ([2]; 60 min, listed as Edisylate salt Form III): 483.3 µg/mL; Dissolution levels in FaSSIF pH 6.5 ([2]; 120 min, listed as Edisylate salt Form III): 469.7 µg/mL

More lines, main results first:

Hygroscopicity classification acc. to Ph. Eur. criteria (section 5.11.) [1] | Water uptake level (Water Vapour Sorption) [1, 3] | Dissolution level in FaSSIF ([2]; after 15 min) | Dissolution level in FaSSIF ([2]; after 60 min) | Dissolution level in FaSSIF ([2]; after 120 min) | Tendency to undergo hydrate formation upon exposure to elevated RH levels ([1]; up to 90% RH) | Compound | also measured
non-hygroscopic | < 0.1 wt% | – | – | – | – | COc1ccc2nc3cc(Cl)ccc3c(Nc3cc(CN4CCCC4)c(O)c(CN4CCCC4)c3)c2n1 [Form VI, 4-[(7-chloro-2-methoxybenzo[b][1,5]naphthyridin-10-yl)amino]-2,6-bis(pyrrolidin-1-ylmethyl)phenol] | Tendency to undergo hydrate formation upon exposure to elevated RH levels ([1]; up to 98% RH): no tendency to undergo hydrate formation
hygroscopic | > 4.9 wt% | approx. 0.50 mg/mL | approx. 0.50 mg/mL | approx. 0.49 mg/mL | – | COc1ccc2nc3cc(Cl)ccc3c(Nc3cc(CN4CCCC4)c(O)c(CN4CCCC4)c3)c2n1 [Tetraphosphate form, 4-[(7-chloro-2-methoxybenzo[b][1,5]naphthyridin-10-yl)amino]-2,6-bis(pyrrolidin-1-ylmethyl)phenol tetraphosphate, reference compound] | Hygroscopicity classification acc. to Ph. Eur. criteria (section 5.11.) ([1]; listed as pyronaridine): hygroscopic; Dissolution levels in FaSSIF pH 6.5 ([2]; 5 min, listed as Pyronaridine (tetraphosphate salt, prior art form)): 501.4 µg/mL; Dissolution levels in FaSSIF pH 6.5 ([2]; 15 min, listed as Pyronaridine (tetraphosphate salt, prior art form)): 501.9 µg/mL; Dissolution levels in FaSSIF pH 6.5 ([2]; 60 min, listed as Pyronaridine (tetraphosphate salt, prior art form)): 501.3 µg/mL; Dissolution levels in FaSSIF pH 6.5 ([2]; 120 min, listed as Pyronaridine (tetraphosphate salt, prior art form)): 491.3 µg/mL

Source: patent US20230295156A1, “CRYSTALLINE FORMS OF 4-[(7-CHLORO-2-METHOXYBENZO[B][1,5]NAPHTHYRIDIN-10-YL)AMINO]-2,6-BIS(PYRROLIDIN-1-YLMETHYL)PHENOL AND SALTS THEREOF” (Merck Patent GmbH, priority 2020, published 2023)
